Activity calls are given as the source filed them. The rule behind the calls is not given here.
Legend:
[1] = tested on: 4T1; assay: Cytotoxicity against mouse 4T1 cells assessed as reduction in cell viability at 100 nM measured after 24 hrs by RealTime-glo cell viability assay; format: functional, cell-based
[2] = tested on: MDA-MB-231; assay: Cytotoxicity against human MDA-MB-231 cells assessed as reduction in cell viability at 100 nM measured after 24 hrs by RealTime-glo cell viability assay; format: functional, cell-based
[3] = tested on: 4T1; assay: Cytotoxicity against mouse 4T1 cells assessed as reduction in cell viability at 100 nM measured after 24 hrs in presence of 1,25D by RealTime-glo cell viability assay; format: functional, cell-based
[4] = tested on: MDA-MB-231; assay: Cytotoxicity against human MDA-MB-231 cells assessed as reduction in cell viability at 100 nM measured after 24 hrs in presence of 1,25D by RealTime-glo cell viability assay; format: functional, cell-based
[5] = target: T1, Protein deacetylase HDAC6 (Mus musculus) (UniProt Q9Z2V5); assay: Inhibition of HDAC6 in mouse 4T1 cells assessed as induction of tubulin acetylation at 100 nM measured after 6 hrs by Western blot analysis; format: cell-based
T1 sequence (whole entry): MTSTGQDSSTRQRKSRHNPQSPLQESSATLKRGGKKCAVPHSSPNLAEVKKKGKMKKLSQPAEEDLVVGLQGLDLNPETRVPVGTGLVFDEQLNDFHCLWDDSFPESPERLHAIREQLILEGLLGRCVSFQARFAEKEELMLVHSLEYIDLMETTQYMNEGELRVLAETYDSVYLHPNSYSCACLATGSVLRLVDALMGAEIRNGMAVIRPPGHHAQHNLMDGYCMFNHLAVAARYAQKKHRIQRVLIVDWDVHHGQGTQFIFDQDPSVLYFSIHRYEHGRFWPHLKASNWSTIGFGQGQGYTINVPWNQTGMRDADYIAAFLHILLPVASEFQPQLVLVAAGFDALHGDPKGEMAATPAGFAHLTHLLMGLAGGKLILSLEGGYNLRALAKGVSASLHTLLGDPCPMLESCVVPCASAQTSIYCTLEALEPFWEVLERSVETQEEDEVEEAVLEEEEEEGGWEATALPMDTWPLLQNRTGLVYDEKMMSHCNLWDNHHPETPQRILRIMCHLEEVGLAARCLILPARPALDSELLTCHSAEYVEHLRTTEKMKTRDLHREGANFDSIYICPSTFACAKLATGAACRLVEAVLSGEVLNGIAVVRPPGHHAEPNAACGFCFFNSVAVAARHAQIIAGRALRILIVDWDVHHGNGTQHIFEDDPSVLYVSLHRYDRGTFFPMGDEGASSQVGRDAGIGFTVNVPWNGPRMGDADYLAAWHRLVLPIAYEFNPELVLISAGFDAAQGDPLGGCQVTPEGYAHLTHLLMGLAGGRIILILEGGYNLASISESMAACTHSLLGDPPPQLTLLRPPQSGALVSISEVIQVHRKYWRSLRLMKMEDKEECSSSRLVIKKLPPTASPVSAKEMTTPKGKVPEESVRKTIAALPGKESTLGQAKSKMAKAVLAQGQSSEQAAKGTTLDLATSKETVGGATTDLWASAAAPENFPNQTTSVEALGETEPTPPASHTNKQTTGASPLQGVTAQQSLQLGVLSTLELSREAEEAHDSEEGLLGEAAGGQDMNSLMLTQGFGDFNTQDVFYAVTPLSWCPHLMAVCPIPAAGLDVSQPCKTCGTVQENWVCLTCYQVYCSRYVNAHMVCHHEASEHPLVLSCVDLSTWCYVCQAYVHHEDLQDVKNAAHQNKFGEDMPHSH

[6] = target: T2, Vitamin D3 receptor (Mus musculus) (UniProt P48281); assay: Agonist activity at VDR in mouse B16-F10 cells assessed as induction of Cyp24a1 gene at 100 nM measured after 24 hrs in presence of 1,25D by RT-qPCR analysis; format: cell-based; conditions: filed as agonist
T2 sequence (whole entry): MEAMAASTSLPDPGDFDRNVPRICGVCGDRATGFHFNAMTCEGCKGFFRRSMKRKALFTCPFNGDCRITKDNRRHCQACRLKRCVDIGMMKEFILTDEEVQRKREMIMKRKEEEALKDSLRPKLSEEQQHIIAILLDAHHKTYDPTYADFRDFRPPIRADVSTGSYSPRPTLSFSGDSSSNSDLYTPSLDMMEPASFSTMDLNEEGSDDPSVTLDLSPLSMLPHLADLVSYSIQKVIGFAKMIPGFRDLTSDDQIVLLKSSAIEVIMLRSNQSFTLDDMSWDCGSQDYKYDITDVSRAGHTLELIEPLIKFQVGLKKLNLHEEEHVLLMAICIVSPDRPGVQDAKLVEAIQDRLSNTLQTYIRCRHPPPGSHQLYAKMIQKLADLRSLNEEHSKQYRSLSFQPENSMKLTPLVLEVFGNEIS

[7] = target: T1, Protein deacetylase HDAC6 (Mus musculus); assay: Inhibition of HDAC6 in mouse B16-F10 cells assessed as induction of tubulin acetylation at 100 nM measured after 6 hrs by Western blot analysis; format: cell-based
[8] = Toxicity in mouse B16-F10 cells implanted C57BL/6 mouse at 80 mg/kg, ip administered daily for 28 days; format: organism-based; conditions: in vivo, time 28 day
[9] = Toxicity in mouse B16-F10 cells implanted C57BL/6 mouse at 80 mg/kg, ip administered daily for 28 days in presence of 1,25D; format: organism-based; conditions: in vivo, time 28 day
[10] = Toxicity in mouse B16-F10 cells implanted C57BL/6 mouse assessed as effect on body weight at 80 mg/kg, ip administered daily for 28 days; format: organism-based; conditions: in vivo, time 28 day
[11] = Toxicity in mouse B16-F10 cells implanted C57BL/6 mouse assessed as effect on body weight at 80 mg/kg, ip administered daily for 28 days in presence of 1,25D; format: organism-based; conditions: in vivo, time 28 day
[12] = tested on: B16-F10; assay: Antitumor activity against mouse B16-F10 cells implanted in C57BL/6 mouse assessed as reduction in tumor burden at 80 mg/kg, ip administered every second day for 18 days; format: functional, organism-based; conditions: time 18.0 day
[13] = tested on: B16-F10; assay: Antitumor activity against mouse B16-F10 cells implanted in C57BL/6 mouse assessed as reduction in tumor burden at 80 mg/kg, ip administered every second day for 18 days in presence of 1,25D; format: functional, organism-based; conditions: time 18.0 day
[14] = Toxicity in 4T1 cells implanted BALB/c mouse assessed as stress at 80 mg/kg, ip administered daily for 18 days; format: organism-based; conditions: in vivo, 432 h, time 18 day
[15] = Toxicity in 4T1 cells implanted BALB/c mouse assessed as stress at 80 mg/kg, ip administered daily for 18 days in presence of 1,25D; format: organism-based; conditions: in vivo, 432 h, time 18 day
[16] = Toxicity in 4T1 cells implanted BALB/c mouse assessed as body weight loss at 80 mg/kg, ip administered daily for 18 days; format: organism-based; conditions: in vivo, 432 h, time 18 day
[17] = Toxicity in 4T1 cells implanted BALB/c mouse assessed as body weight loss at 80 mg/kg, ip administered daily for 18 days in presence of 1,25D; format: organism-based; conditions: in vivo, 432 h, time 18 day
[18] = tested on: 4T1; assay: Antitumor activity against mouse 4T1 cells implanted in BALB/c mouse assessed as reduction in tumor burden at 80 mg/kg, ip administered daily for 18 days in presence of 1,25D relative to control; format: functional; design: scale not given: the % may be the effect or the level left; conditions: time 18 day
[19] = tested on: Mus musculus; assay: Immunomodulatory activity in mouse 4T1 cells implanted BALB/c mouse assessed as reduction in total macrophage infiltration into tumors at 80 mg/kg, ip administered daily for 18 days by F4/80 staining based immunofluorescence microscopy; format: functional, organism-based; conditions: time 18.0 day
[20] = tested on: 4T1; assay: Cytotoxicity against mouse 4T1 cells assessed as reduction in cell viability at 100 nM measured after 24 hrs in presence of SAHA by RealTime-glo cell viability assay; format: functional, cell-based
[21] = tested on: MDA-MB-231; assay: Cytotoxicity against human MDA-MB-231 cells assessed as reduction in cell viability at 100 nM measured after 24 hrs in presence of SAHA by RealTime-glo cell viability assay; format: functional, cell-based
[22] = Toxicity in mouse B16-F10 cells implanted C57BL/6 mouse at 0.25 ug/kg, ip administered daily for 28 days; format: organism-based; conditions: in vivo, 0.00025 mg/kg, dose 0.25 µg/kg, time 28 day
[23] = Toxicity in mouse B16-F10 cells implanted C57BL/6 mouse at 0.25 ug/kg, ip administered daily for 28 days in presence of SAHA; format: organism-based; conditions: in vivo, 0.00025 mg/kg, dose 0.25 µg/kg, time 28 day
[24] = Toxicity in mouse B16-F10 cells implanted C57BL/6 mouse assessed as effect on body weight at 0.25 ug/kg, ip administered daily for 28 days; format: organism-based; conditions: in vivo, 0.00025 mg/kg, dose 0.25 µg/kg, time 28 day
[25] = Toxicity in mouse B16-F10 cells implanted C57BL/6 mouse assessed as effect on body weight at 0.25 ug/kg, ip administered daily for 28 days in presence of SAHA; format: organism-based; conditions: in vivo, 0.00025 mg/kg, dose 0.25 µg/kg, time 28 day
[26] = tested on: B16-F10; assay: Antitumor activity against mouse B16-F10 cells implanted in C57BL/6 mouse assessed as reduction in tumor burden at 0.25 ug/kg, ip administered every second day for 18 days; format: functional, organism-based; conditions: dose 0.25 µg/kg, time 18.0 day
[27] = tested on: B16-F10; assay: Antitumor activity against mouse B16-F10 cells implanted in C57BL/6 mouse assessed as reduction in tumor burden at 0.25 ug/kg, ip administered every second day for 18 days in presence of SAHA; format: functional, organism-based; conditions: dose 0.25 µg/kg, time 18.0 day
[28] = Toxicity in 4T1 cells implanted BALB/c mouse assessed as stress at 0.25 ug/kg, ip administered daily for 18 days; format: organism-based; conditions: in vivo, 0.00025 mg/kg, 432 h, dose 0.25 µg/kg, time 18 day
[29] = Toxicity in 4T1 cells implanted BALB/c mouse assessed as stress at 0.25 ug/kg, ip administered daily for 18 days in presence of SAHA; format: organism-based; conditions: in vivo, 0.00025 mg/kg, 432 h, dose 0.25 µg/kg, time 18 day
[30] = Toxicity in 4T1 cells implanted BALB/c mouse assessed as body weight loss at 0.25 ug/kg, ip administered daily for 18 days; format: organism-based; conditions: in vivo, 0.00025 mg/kg, 432 h, dose 0.25 µg/kg, time 18 day
[31] = Toxicity in 4T1 cells implanted BALB/c mouse assessed as body weight loss at 0.25 ug/kg, ip administered daily for 18 days in presence of SAHA; format: organism-based; conditions: in vivo, 0.00025 mg/kg, 432 h, dose 0.25 µg/kg, time 18 day
[32] = tested on: 4T1; assay: Antitumor activity against mouse 4T1 cells implanted in BALB/c mouse assessed as reduction in tumor burden at 0.25 ug/kg, ip administered daily for 18 days in presence of SAHA relative to control; format: functional; design: scale not given: the % may be the effect or the level left; conditions: dose 0.25 µg/kg, time 18 day
[33] = tested on: Mus musculus; assay: Immunomodulatory activity in mouse 4T1 cells implanted BALB/c mouse assessed as reduction in Ccl2 gene expression at 0.25 ug/kg, ip administered daily for 18 days by RT-qPCR analysis; format: functional, organism-based; conditions: dose 0.25 µg/kg, time 18.0 day
[34] = tested on: Mus musculus; assay: Immunomodulatory activity in mouse 4T1 cells implanted BALB/c mouse assessed as reduction in Ccl5 gene expression at 0.25 ug/kg, ip administered daily for 18 days by RT-qPCR analysis; format: functional, organism-based; conditions: dose 0.25 µg/kg, time 18.0 day
[35] = tested on: Mus musculus; assay: Immunomodulatory activity in mouse 4T1 cells implanted BALB/c mouse assessed as reduction in Ccl20 gene expression at 0.25 ug/kg, ip administered daily for 18 days by RT-qPCR analysis; format: functional, organism-based; conditions: dose 0.25 µg/kg, time 18.0 day
[36] = tested on: Mus musculus; assay: Immunomodulatory activity in mouse 4T1 cells implanted BALB/c mouse assessed as reduction in Cxcl10 gene expression at 0.25 ug/kg, ip administered daily for 18 days by RT-qPCR analysis; format: functional, organism-based; conditions: dose 0.25 µg/kg, time 18.0 day
[37] = tested on: Mus musculus; assay: Immunomodulatory activity in mouse 4T1 cells implanted BALB/c mouse assessed as induction of Il1a gene expression at 0.25 ug/kg, ip administered daily for 18 days by RT-qPCR analysis; format: functional, organism-based; conditions: dose 0.25 µg/kg, time 18.0 day
[38] = tested on: Mus musculus; assay: Immunomodulatory activity in mouse 4T1 cells implanted BALB/c mouse assessed as reduction in total macrophage infiltration into tumors at 0.25 ug/kg, ip administered daily for 18 days by F4/80 staining based immunofluorescence microscopy; format: functional, organism-based; conditions: dose 0.25 µg/kg, time 18.0 day

O=C(CCCCCCC(=O)Nc1ccccc1)NO [VORINOSTAT]
Activity [1]: Active | Activity [2]: Active | Activity [3]: Active | Activity [4]: Active | inhibition [5]: Active | Activity [6]: Active | inhibition [7]: Active | Activity [8]: Non-toxic | Activity [9]: Non-toxic | Activity [10]: Non-toxic | Activity [11]: Non-toxic | Activity [12]: Active | Activity [13]: Active | Activity [14]: Non-toxic | Activity [15]: Non-toxic | Activity [16]: Non-toxic | Activity [17]: Non-toxic | Activity [18]: ~20% | Activity [19]: Active; No Significant Effect Observed

C=C1/C(=C\C=C2/CCC[C@]3(C)[C@@H]([C@H](C)CCCC(C)(C)O)CC[C@@H]23)C[C@@H](O)C[C@@H]1O [CALCITRIOL]
Activity [1]: Active | Activity [2]: Active | Activity [20]: Active | Activity [21]: Active | Activity [22]: Non-toxic | Activity [23]: Non-toxic | Activity [24]: Non-toxic | Activity [25]: Non-toxic | Activity [26]: Active | Activity [27]: Active | Activity [28]: Non-toxic | Activity [29]: Non-toxic | Activity [30]: Non-toxic | Activity [31]: Non-toxic | Activity [32]: ~20% | Activity [33]: Active | Activity [34]: Active | Activity [35]: Active | Activity [36]: Active | Activity [37]: Active | Activity [38]: Active; Significantly Reduced Macrophage Infiltration Into Tumor
